Assay results from patent US7115624B1, “Method of inhibiting protein tyrosine phosphatase 1B and/or T-cell protein tyrosine phosphatase 4 and/or other PTPases with an Asp residue at position 48” (Novo Nordisk A/S, priority 1999, dated 2006).
Substitutions are numbered along the chain they refer to.

Tests used:
Assay type in all cases: biochemical
PTPH1 = molecular target: T1, PTPH1 (Homo sapiens, UniProt P26045); test: PTPase inhibition, p-nitrophenyl phosphate substrate, Ki; details: pH 7.0; wt (Table 4)
T1 sequence (P26045 646-901 limits assumed): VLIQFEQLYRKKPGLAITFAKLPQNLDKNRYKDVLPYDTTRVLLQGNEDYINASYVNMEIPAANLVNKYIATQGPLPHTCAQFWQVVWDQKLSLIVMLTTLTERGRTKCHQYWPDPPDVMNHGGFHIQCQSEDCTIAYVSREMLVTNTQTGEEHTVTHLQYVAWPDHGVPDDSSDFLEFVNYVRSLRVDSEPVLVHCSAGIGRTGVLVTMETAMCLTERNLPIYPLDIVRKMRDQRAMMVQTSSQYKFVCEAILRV
Excerpt: (§1) To test directly, whether the above compound was addressing the proposed region of PTP1B, Compound N was subjected to detailed enzyme kinetic analyses using a set of wildtype (wt) and mutant PTPs. Two enzymes, PTPα and PTPH1, were chosen as representatives for PTPs with bulky side chains in the 259 position. Using a combination of wt and PTP mutants it has previously been shown that Gln259 in PTPα, in addition to its direct effect, also indirectly influences the binding of inhibitors and substrates, most likely due to a negative influence on the rotational freedom of the side chain of Gln262 (Peters et al., J. Biol. Chem. 275: 18201–18209 (2000)). As described above, selectivity can be obtained by introducing a basic nitrogen into 2-(oxalylamino)-4,5,6,7-tetrahydrobenzo[b]thiophene-3-carboxylic acid that causes attraction in PTP1B due to salt bridge formation to Asp48 and repulsion against PTPs with an asparagine in the 48 position, such as PTPα. To analyze if the current approach based on steric hindrance is generally applicable, it was decided to include a PTP with an aspartic acid in position 48. PTPH1, which like PTP1B is an intracellular enzyme with one domain only, was selected for these studies. The results of these studies are shown below (Table 4).
(§2) The assay conditions are as follows.

PTPα = molecular target: T2, PTPα (Homo sapiens, UniProt P18433); test: as above; details: pH 7.0; wt (Table 4)
T2 construct: PTPα D1
Excerpt: as §1, §2

PTP1B G259Q = molecular target: T3, PTP1B G259Q (Homo sapiens, UniProt P18031, G259Q); test: Enzyme kinetic analysis with mutant PTPs, Ki; details: pH 7.0
T3 sequence (P18031 1-435 G259Q): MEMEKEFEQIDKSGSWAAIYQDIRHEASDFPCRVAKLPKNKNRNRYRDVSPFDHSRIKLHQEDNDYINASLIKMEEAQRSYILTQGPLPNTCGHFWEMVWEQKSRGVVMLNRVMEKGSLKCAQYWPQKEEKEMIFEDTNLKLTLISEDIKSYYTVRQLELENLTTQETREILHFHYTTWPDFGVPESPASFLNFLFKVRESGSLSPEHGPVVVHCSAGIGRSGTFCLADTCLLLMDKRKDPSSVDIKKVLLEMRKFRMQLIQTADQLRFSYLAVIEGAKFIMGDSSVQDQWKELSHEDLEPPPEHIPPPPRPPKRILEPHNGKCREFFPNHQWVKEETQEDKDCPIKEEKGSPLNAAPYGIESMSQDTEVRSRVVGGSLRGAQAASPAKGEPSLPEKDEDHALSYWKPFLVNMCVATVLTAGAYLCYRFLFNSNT
Excerpt: as §1, §2

PTP1B G259M = molecular target: T4, PTP1B G259M (Homo sapiens, UniProt P18031, G259M); test: Enzyme kinetic analysis with mutant PTPs, Ki; details: pH 7.0
T4 sequence (P18031 1-435 G259M): T3 sequence (P18031 1-435 G259Q) with Q259M
Excerpt: as §1, §2

PTPH1 M259G = molecular target: T5, PTPH1 M259G (Homo sapiens, UniProt P26045, M883G); test: Enzyme kinetic analysis with mutant PTPs, Ki; details: pH 7.0
T5 sequence (P26045 628-913 M883G limits assumed): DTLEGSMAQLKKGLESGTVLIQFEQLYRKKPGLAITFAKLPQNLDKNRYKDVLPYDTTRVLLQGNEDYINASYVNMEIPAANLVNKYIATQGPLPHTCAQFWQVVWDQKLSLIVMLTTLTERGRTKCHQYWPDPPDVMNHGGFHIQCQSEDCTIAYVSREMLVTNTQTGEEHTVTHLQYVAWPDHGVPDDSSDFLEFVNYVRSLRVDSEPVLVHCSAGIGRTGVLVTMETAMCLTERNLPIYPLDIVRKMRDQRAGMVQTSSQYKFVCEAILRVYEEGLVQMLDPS
Excerpt: as §1, §2

PTPα Q259G = PTPα Q259G (Homo sapiens, UniProt P18433, Q483G); test: Enzyme kinetic analysis with mutant PTPs, Ki; details: pH 7.0
Description: The compounds are evaluated for biological activity with a truncated form of PTP1B (corresponding to the first 321 amino acids), which was expressed in E. coli and purified to apparent homogeneity using published procedures well-known to those skilled in the art. The enzyme reactions are carried out using standard conditions essentially as described by Burke et al. (Biochemistry 35; 15989–15996 (1996)) incorporated by reference. The assay conditions are as follows. Appropriate concentrations of the compounds of the invention (e.g., 0.1 to 100 μM) are added to the reaction mixtures containing different concentrations of the substrate, p-nitrophenyl phosphate (range: 0.16 to 10 mM—final assay concentration). The buffer used was 50 mM HEPES pH 7.0, 100 mM sodium chloride, 0.1% (w/v) bovine serum albumin, 5 mM glutathione, and 1 mM EDTA. […] The enzyme activity was determined by measurement of the absorbance at 405 nm with appropriate corrections for absorbance at 405 nm of the compounds and p-nitrophenyl phosphate. The data are analyzed using nonlinear regression fit to classical Michaelis Menten enzyme kinetic models. Inhibition is expressed as Ki values in μM.

PTP1B = molecular target: T6, PTP1B (Homo sapiens, UniProt P18031); test: PTPase inhibition, p-nitrophenyl phosphate substrate, Ki; details: pH 7.0; wt (Table 4); read-out: Ki values, PTP1B wt
T6 sequence (P18031 1-321): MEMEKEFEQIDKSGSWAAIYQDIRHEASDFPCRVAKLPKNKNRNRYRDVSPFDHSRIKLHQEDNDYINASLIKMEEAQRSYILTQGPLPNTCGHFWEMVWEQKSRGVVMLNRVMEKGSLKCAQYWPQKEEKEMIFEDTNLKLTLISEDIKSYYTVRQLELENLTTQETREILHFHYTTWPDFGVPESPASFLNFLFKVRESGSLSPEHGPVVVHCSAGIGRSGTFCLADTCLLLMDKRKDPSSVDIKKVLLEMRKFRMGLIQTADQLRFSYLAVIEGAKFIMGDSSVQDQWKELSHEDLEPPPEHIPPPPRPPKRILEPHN
Description: The assay conditions are as follows. Appropriate concentrations of the compounds of the invention (e.g., 0.1 to 100 μM) are added to the reaction mixtures containing different concentrations of the substrate, p-nitrophenyl phosphate (range: 0.16 to 10 mM—final assay concentration). The buffer used was 50 mM HEPES pH 7.0, 100 mM sodium chloride, 0.1% (w/v) bovine serum albumin, 5 mM glutathione, and 1 mM EDTA. The reaction was started by addition of the enzyme and carried out in microtiter plates at 25° C. for 60 minutes. The reactions are stopped by addition of NaOH. […] The data are analyzed using nonlinear regression fit to classical Michaelis Menten enzyme kinetic models. Inhibition is expressed as Ki values in μM.

PTPα Q259G, sequence (P18433 211-512 Q483G limits assumed): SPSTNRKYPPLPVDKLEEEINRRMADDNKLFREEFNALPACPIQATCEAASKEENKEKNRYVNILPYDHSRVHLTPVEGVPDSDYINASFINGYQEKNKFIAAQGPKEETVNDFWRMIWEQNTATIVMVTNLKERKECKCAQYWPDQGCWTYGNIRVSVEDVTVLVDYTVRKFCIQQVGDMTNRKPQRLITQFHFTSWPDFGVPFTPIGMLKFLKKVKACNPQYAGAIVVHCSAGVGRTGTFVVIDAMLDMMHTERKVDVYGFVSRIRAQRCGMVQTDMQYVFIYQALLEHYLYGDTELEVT
T2 sequence (P18433 241-501 limits assumed): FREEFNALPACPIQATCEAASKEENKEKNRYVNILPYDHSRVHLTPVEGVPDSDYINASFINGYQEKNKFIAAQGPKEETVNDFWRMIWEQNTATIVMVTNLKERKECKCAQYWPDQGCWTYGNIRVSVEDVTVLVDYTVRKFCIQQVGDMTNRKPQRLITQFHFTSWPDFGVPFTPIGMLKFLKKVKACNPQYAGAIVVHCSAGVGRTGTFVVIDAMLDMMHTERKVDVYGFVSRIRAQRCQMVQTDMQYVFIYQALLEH

Ki (PTPH1): 55 µM
Ki (PTPα): > 500 µM
Ki (PTP1B G259Q): 65 µM
Ki (PTP1B G259M): 55 µM
Ki (PTPH1 M259G): 12 µM
Ki (PTPα Q259G): 70 µM
Ki (PTP1B): 0.4 µM
Compound: O=C(O)C(=O)Nc1sc2c(c1C(=O)O)CCOC2COC1=NS(=O)(=O)c2ccccc21 (stereo not shown) [Compound N, 7-(1,1-dioxo-1H-benzo[d]isothiazol-3-yloxymethyl)-2-(oxalyl-amino)-4,7-dihyd ro-5H-thieno[2,3-c]pyran-3-carboxylic acid]
